Measurements: patent US11325913B2, “Compounds and methods for the treatment of malaria” (THE BROAD INSTITUTE, INC., priority 2013, dated 2022)

What follows are molecules tested on P. berghei (ANKA GFP-luc) blood stage parasites (assay: Single dose in vivo efficacy, P. berghei blood stage, bioluminescence imaging). Conditions: single 50 mg/kg oral dose.
Parameters: species or system CD-1 mice
Protocol: CD-1 mice (female, 6-7-week-old) were inoculated with 1×10^6 P. berghei (ANKA GFP-luc) blood stage parasites intravenously 24 hours before treatment and compounds were administered as a single 100 or 50 mg/kg dose orally at 0 hour. Parasitemia was monitored by the In vivo Imaging System (IVIS 100, Xenogen; Caliper Life Science) to acquire the bioluminescence signal. Animals with parasitemia exceeding 25% were euthanized.
Infection proceeds rapidly in untreated mice (control), which were euthanized around day 6 of the study. Compound 37 and 68 were tested at different times; thus the artesunate control (ART) is shown for each compound. […] All images are normalized to the same color scale.

In the case of COc1ccc(NC(=O)N2CCCCN3[C@H](CN(C)C)[C@H](c4ccc(C#Cc5ccccc5)cc4)[C@@H]3C2)cc1 [Compound 68, (8R,9S,10S)-10-[(dimethylamino)methyl]-N-(4-methoxyphenyl)-9-[4-(2-phenylethynyl)phenyl]-1,6-diazabicyclo[6.2.0] decane-6-carboxamide], the “cure of the infected animals” value is reported as 100%.

Same assay, conditions: single 100 mg/kg dose

In the case of C[C@H]1[C@H](OC(=O)CCC(=O)O)O[C@@H]2O[C@@]3(C)CC[C@H]4[C@H](C)CC[C@@H]1[C@@]24OO3 [ART, artesunate, reference compound], the “effect on parasites” value is reported as “rapid suppression of parasites, but, due to its short half-life, the parasites re-emerge quickly”.

Same assay, conditions: single oral dose, P. berghei blood stage

COc1ccc(NC(=O)N2CCCCN3[C@H](CN(C)C)[C@H](c4ccc(C#Cc5ccccc5)cc4)[C@@H]3C2)cc1 [Compound 68, (8R,9S,10S)-10-[(dimethylamino)methyl]-N-(4-methoxyphenyl)-9-[4-(2-phenylethynyl)phenyl]-1,6-diazabicyclo[6.2.0] decane-6-carboxamide] was tested, and the ED100 was ≤ 50 mg/kg.

The molecules below were run on P. berghei strain ANKA (assay: In vivo antimalarial activity, mice infected with P. berghei strain ANKA, three daily oral doses). Conditions: 50 mg/kg orally, three consecutive daily doses (24, 48, 72 h after infection), day 4, relative to control group.
Parameters: species or system NMVRI mice
Protocol: In vivo antimalarial activity for certain compounds of the invention was assessed for groups of three-five female NMVRI mice ([…]) intravenously infected on day 0 with P. berghei strain ANKA (2×10^7 parasitized erythrocytes per ml). In control mice, parasitemia typically rose to ˜40% by day 3 after infection, and control mice died between day 5 and day 7 after infection. Compounds with a dosage of 50 mg/kg were formulated in 7% Tween80/3% ethanol and were administered orally as three consecutive daily doses (24, 48, and 72 h after infection). The blood smears were collected and stained on day 4 after infection. The degree of infection (parasitemia expressed as percent infected erythrocytes) was determined microscopically, with a detection limit of 1 parasite in 10,000 erythrocytes (that is, 0.01%). Activity was calculated as the difference between the mean percent parasitemia for the control and treated groups expressed as a percent relative to the control group. Using this method, a compound of the invention (8R,9R,10S)-10-(hydroxymethyl)-N-(4-methoxyphenyl)-9-(4-(phenylethynyl)phenyl)-1,6-diazabicyclo[6.2.0]decane-6-carboxamide (compound 27) reduced parasitaemia by 57% on day 4. […] Quantification was conducted by comparison to a calibration curve prepared using blank plasma and processed in the same way as the samples.

With COc1ccc(NC(=O)N2CCCCN3[C@H](CO)[C@H](c4ccc(C#Cc5ccccc5)cc4)[C@@H]3C2)cc1 [Compound 27, (8R,9R,10S)-10-(hydroxymethyl)-N-(4-methoxyphenyl)-9-(4-(phenylethynyl)phenyl)-1,6-diazabicyclo[6.2.0] decane-6-carboxamide] the reduction of parasitaemia was 57%.

The molecules below were run on P. falciparum Dd2 (assay: Activity against the Dd2 strain of P. falciparum (SYBR Green I, 72 h)). Conditions: P. falciparum Dd2, 72 h incubation.
Format: cell-based
Method in brief: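 Parasites in human RBCs at 1% parasitemia and 1.0% hematocrit, exposed to compounds (0.125% DMSO) for 72 h at 37°C under 93% N2/4% CO2/3% O2. SYBR Green I in saponin/Triton lysis buffer added, 24 h staining, fluorescence read at 485/530 nm. EC50 derived against 20 μM mefloquine background and DMSO baseline.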

For O=C(Nc1ccccc1)N1CCCCN2[C@H](CO)[C@H](c3ccc(C#Cc4ccccc4)cc3)[C@@H]2C1 [Compound 78, (8R,9R,10S)-10-(hydroxymethyl)-N-phenyl-9-[4-(2-phenylethynyl)phenyl]-1,6-diazabicyclo[6.2.0] decane-6-carboxamide], the EC50 was 61 nM.

Same assay, conditions: Plasmodium falciparum, DD2, 72 h, P. falciparum Dd2, 72 h incubation

In order of falling EC50:
1. COc1ccc(NC(=O)N(C)C[C@H]2[C@@H](c3ccc(C#Cc4ccccc4)cc3)[C@@H](CO)N2C)cc1 [Compound 95, 1-(((2R,3R,4S)-4-(hydroxymethyl)-1-methyl-3-(4-(phenylethynyl)phenyl)azetidin-2-yl)methyl)-3-(4-methoxyphenyl)-1-methylurea]  5000 nM
2. COc1ccc(NC(=O)N2CCCCN3[C@H](CO)[C@H](c4ccc(-c5ccn(-c6ccccc6)n5)cc4)[C@@H]3C2)cc1 [Compound 77, (8R,9R,10S)-10-(hydroxymethyl)-N-(4-methoxyphenyl)-9-[4-(1-phenyl-1H-pyrazol-3-yl)phenyl]-1,6-diazabicyclo[6.2.0] decane-6-carboxamide]  4890 nM
3. COc1ccc(NC(=O)N2CCCN3[C@H](CO)[C@H](c4ccc(C#Cc5ccccc5)cc4)[C@@H]3C2)cc1 [Compound 79, (7R,8R,9S)-9-(hydroxymethyl)-N-(4-methoxyphenyl)-8-[4-(2-phenylethynyl)phenyl]-1,5-diazabicyclo[5.2.0] nonane-5-carboxamide]  850 nM
4. COc1ccc(NC(=O)N2CCCCN3[C@H](CNCC(F)(F)F)[C@H](c4ccc(C#Cc5ccccc5)cc4)[C@@H]3C2)cc1 [Compound 90, (8R,9S,10S)-N-(4-methoxyphenyl)-9-(4-(phenylethynyl)phenyl)-10-(((2,2,2-trifluoroethyl)amino)methyl)-1,6-diazabicyclo[6.2.0] decane-6-carboxamide]  228 nM
5. N#Cc1ccc(NC(=O)N2CCCCN3[C@H](CO)[C@H](c4ccc(C#Cc5ccccc5)cc4)[C@@H]3C2)cc1 [Compound 93, (8R,9R,10S)-N-(4-cyanophenyl)-10-(hydroxymethyl)-9-(4-(phenylethynyl)phenyl)-1,6-diazabicyclo[6.2.0] decane-6-carboxamide]  138 nM
6. COc1ccc(NC(=O)N2CCCCN3[C@@H](CN(C)C)[C@H](c4ccc(C#Cc5ccccc5)cc4)[C@@H]3C2)cc1 [Compound 92, (8R,95S,10R)-10-((dimethylamino)methyl)-N-(4-methoxyphenyl)-9-(4-(phenylethynyl)phenyl)-1,6-diazabicyclo[6.2.0] decane-6-carboxamide]  108 nM
7. COc1ccc(NC(=O)N2CCCCN3[C@@H](CN4CCOCC4)[C@H](c4ccc(C#Cc5ccccc5)cc4)[C@@H]3C2)cc1 [Compound 84, (8R,9S,10R)-N-(4-methoxyphenyl)-10-(morpholinomethyl)-9-(4-(phenylethynyl)phenyl)-1,6-diazabicyclo[6.2.0] decane-6-carboxamide]  52 nM
8. COc1ccc(NC(=O)N2CCCCN3[C@H](CO)[C@H](c4ccc(C#Cc5ccccc5)cn4)[C@@H]3C2)cc1 [Compound 81, (8R,9R,10S)-10-(hydroxymethyl)-N-(4-methoxyphenyl)-9-(5-(phenylethynyl)pyridin-2-yl)-1,6-diazabicyclo[6.2.0] decane-6-carboxamide]  34 nM
9. CNC[C@H]1[C@H](c2ccc(C#Cc3ccccc3)cc2)[C@@H]2CN(C(=O)Nc3ccc(OC)cc3)CCCCN12 [Compound 88, (8R,9S,10R)-N-(4-methoxyphenyl)-10-((methylamino)methyl)-9-(4-(phenylethynyl)phenyl)-1,6-diazabicyclo[6.2.0] decane-6-carboxamide]  25 nM
10. O=C(Nc1ccc(OCCN2CCOCC2)cc1)N1CCCCN2[C@H](CO)[C@H](c3ccc(C#Cc4ccccc4)cc3)[C@@H]2C1 [Compound 83, (8R,9R,10S)-10-(hydroxymethyl)-N-(4-(2-morpholinoethoxy)phenyl)-9-(4-(phenylethynyl)phenyl)-1,6-diazabicyclo[6.2.0] decane-6-carboxamide]  24 nM
11. COc1ccc(NC(=O)N2CCCCN3[C@H](COCCC(=O)O)[C@H](c4ccc(C#Cc5ccccc5)cc4)[C@@H]3C2)cc1 [Compound 80, 3-(((8R,9R,10S)-6-((4-methoxyphenyl)carbamoyl)-9-(4-(phenylethynyl)phenyl)-1,6-diazabicyclo[6.2.0]decan-10-yl)methoxy)propanoic acid]  23 nM
12. COc1ccc(NC(=O)N2CCCCN3[C@@H](COCCC(=O)N4CCOCC4)[C@H](c4ccc(C#Cc5ccccc5)cc4)[C@@H]3C2)cc1 [Compound 91, (8R,9R,10R)-N-(4-methoxyphenyl)-10-((3-morpholino-3-oxopropoxy)methyl)-9-(4-(phenylethynyl)phenyl)-1,6-diazabicyclo[6.2.0] decane-6-carboxamide]  14 nM
13. CCN(CC)C[C@@H]1[C@H](c2ccc(C#Cc3ccccc3)cc2)[C@@H]2CN(C(=O)Nc3ccc(OC)cc3)CCCCN12 [Compound 94, (8R,9S,10S)-10-((diethylamino)methyl)-N-(4-methoxyphenyl)-9-(4-(phenylethynyl)phenyl)-1,6-diazabicyclo[6.2.0] decane-6-carboxamide]  14 nM
14. COc1ccc(NC(=O)N2CCCCN3[C@H](COCCC(=O)N4CCOCC4)[C@H](c4ccc(C#Cc5ccccc5)cc4)[C@@H]3C2)cc1 [Compound 89, (8R,9R,10S)-N-(4-methoxyphenyl)-10-((3-morpholino-3-oxopropoxy)methyl)-9-(4-(phenylethynyl)phenyl)-1,6-diazabicyclo[6.2.0] decane-6-carboxamide]  8 nM
15. COc1ccc(NC(=O)N2CCCCN3[C@H](CO)[C@H](c4ccc(C#Cc5ccccc5)cc4)[C@@H]3C2)cc1 [Compound 27, (8R,9R,10S)-10-(hydroxymethyl)-N-(4-methoxyphenyl)-9-(4-(phenylethynyl)phenyl)-1,6-diazabicyclo[6.2.0] decane-6-carboxamide]  4 nM
16. COc1ccc(NC(=O)N2CCCCN3[C@H](CN(C)C)[C@H](c4ccc(C#Cc5ccccc5)cc4)[C@@H]3C2)cc1 [Compound 68, (8R,9S,10S)-10-[(dimethylamino)methyl]-N-(4-methoxyphenyl)-9-[4-(2-phenylethynyl)phenyl]-1,6-diazabicyclo[6.2.0] decane-6-carboxamide]  3 nM
17. COc1ccc(NC(=O)N2CCCCN3[C@@H](CNC(C)=O)[C@H](c4ccc(C#Cc5ccccc5)cc4)[C@@H]3C2)cc1 [Compound 82, (8R,9S,10R)-10-(acetamidomethyl)-N-(4-methoxyphenyl)-9-(4-(phenylethynyl)phenyl)-1,6-diazabicyclo[6.2.0] decane-6-carboxamide]  3 nM
18. COc1ccc(NC(=O)N2CCCCN3[C@@H](COCCC(=O)O)[C@H](c4ccc(C#Cc5ccccc5)cc4)[C@@H]3C2)cc1 [Compound 86, 3-(((8R,9R,10R)-6-((4-methoxyphenyl)carbamoyl)-9-(4-(phenylethynyl)phenyl)-1,6-diazabicyclo[6.2.0]decan-10-yl)methoxy)propanoic acid]  2 nM
19. COC(=O)CCOC[C@@H]1[C@H](c2ccc(C#Cc3ccccc3)cc2)[C@@H]2CN(C(=O)Nc3ccc(OC)cc3)CCCCN12 [Compound 87, methyl 3-(((8R,9R,10S)-6-((4-methoxyphenyl)carbamoyl)-9-(4-(phenylethynyl)phenyl)-1,6-diazabicyclo[6.2.0]decan-10-yl)methoxy)propanoate]  1 nM
20. COc1ccc(NC(=O)N2CCCCN3[C@@H](COCC(=O)O)[C@H](c4ccc(C#Cc5ccccc5)cc4)[C@@H]3C2)cc1 [Compound 85, 2-(((8R,9R,10R)-6-((4-methoxyphenyl)carbamoyl)-9-(4-(phenylethynyl)phenyl)-1,6-diazabicyclo[6.2.0]decan-10-yl)methoxy)acetic acid]  0.4 nM
